# Laboratory results published in patent publication US20210052566A1, “METHODS FOR TREATING HEPATITIS B VIRUS (HBV) INFECTION” (INSERM (INSTITUT NATIONAL DE LA SANTÉ ET DE LA RECHERCHE …, priority 2018, published 2021).
# Experiments:
# SRSF10 = SRSF10 (Homo sapiens, UniProt O75494); settings: cited from earlier work
# HDV genotype 1 = assay: Hepatitis delta virus replication in infected dHepaRG cells (intracellular HDV RNA, RTqPCR); assay type: cell-based; settings: HDV MOI 10 vge/cell, 10 microM three times post-infection
# Procedure: (§1) FIG. 1. Experimental outlines. Treatment schemes: (a) Treatments in pre-infection: dHepaRG cells were treated for 24 h (at day −1) with 100 nM of PreS1 peptide (PreS1-pep) or 10 μM of 1C8, or untreated (NT). At day 0, cells were inoculated with HBV (MOI=250) or with HDV (MOI=25) in the presence of drugs for 24 h. For the tenofovir control (TDF at 10 μM), cells were treated at day 1 and 4 post-infection. Supernatant and cells were harvested at day 7 post-infection. (b) Treatments in post-infection: dHepaRG cells were inoculated with HBV (MOI=250) or with HDV (MOI=25). At days 4, 7 and 9 post infection, cells were treated with TDF 10 μM, lamivudine (3TC) at 10 μM, 1C8 10 μM or untreated (NT). Supernatant and cells were harvested at day 11 postinfection.
# FIG. 5. […] B) HBs and HBe secreted antigens in supernatant were quantified by ELISA, whereas HBV DNA contained in virions was quantified by qPCR after viral nucleic acid extraction from supernatant. C) Intracellular HDV RNA was quantified by RTqPCR after total RNA extraction from cells. D) Viability was monitored in 1C8-treated (or control treated; puromycin is a positive toxic molecule) cells by CellTiter-Glo® luminescent cell viability assay. […] Statistics were done by two-tailed Mann-Whitney test, with following significativity: *P<0.05, **P<0.01, ***P<0.001, ****P<0.0001. nd=not determined
# HBV genotype D = assay: Anti-HBV properties in persistently infected dHepaRG cells, genotype D (post-infection treatment); assay type: cell-based, Hepatitis B virus
# Procedure: as §1
# (§2) FIG. 5. Anti-HBV properties of 1C8 in persistently infected dHepaRG cells: genotype D. Differentiated HepaRG were infected with HBV genotype D at a MOI of 100 vge/cell or HDV genotype 1 at a MOI of 10 vge/cell for 7 days before being treated trice every 2-3 days with indicated molecules at a concentration of 10 microM. A) Total DNA and RNA were extracted from cells and subjected to qPCR and RTqPCR to detect HBV cccDNA, total HBV RNA or pregenomic HBV RNA. B) HBs and HBe secreted antigens in supernatant were quantified by ELISA, whereas HBV DNA contained in virions was quantified by qPCR after viral nucleic acid extraction from supernatant. C) Intracellular HDV RNA was quantified by RTqPCR after total RNA extraction from cells. D) Viability was monitored in 1C8-treated (or control treated; puromycin is a positive toxic molecule) cells by CellTiter-Glo® luminescent cell viability assay. Results are the mean+SEM of n=3 performed with 3 different differentiations of HepaRG. Statistics were done by two-tailed Mann-Whitney test, with following significativity: *P<0.05, **P<0.01, ***P<0.001, ****P<0.0001. nd=not determined
# Human liver progenitor HepaRG cells were cultured in Williams medium (ThermoFisher) supplemented with 10% of FBS (Perbio), Penicillin/Streptomycin (500 U/mL), glutamine (2 mM), hydrocortisone Upjohn (2.5 mg/L; Serb laboratory), insulin (5 mg/L; Sigma Aldrich). For the differentiation process 2% of DMSO was added to the above-described supplemented Williams medium. […] The multiplicity of infection (MOI; expressed as virus genome equivalent/cell) is indicated in the figure legends, but was of 100 vge/cell if not precised.
# (§3) From cell culture supernatants, secreted HBe and HBs antigens were quantified by ELISA, using a chemiluminescence immunoassay kit (Autobio, China) following manufacturer's instructions. […]
# A HBV standard was used for quantification of extracellular viral DNA and RNA. […]
# HBV genotype C = assay: De novo establishment of HBV infection/cccDNA in naive dHepaRG, genotype C (treatment before and during inoculation); assay type: cell-based, Hepatitis B virus
# Procedure: as §1, with “Supernatant and cells were harvested at day 11 postinfection.” left out
# FIG. 8. […] B) HBs and HBe secreted antigens in supernatant were quantified by ELISA, whereas HBV DNA contained in virions was quantified by qPCR after viral nucleic acid extraction from supernatant. […] Statistics were done by two-tailed Mann-Whitney test, with following significativity: *P<0.05, **P<0.01, ***P<0.001, ****P<0.0001. nd=not determined […]
# as §3
# A HBV standard was used for quantification of extracellular viral DNA and RNA. […] CccDNA was normalized to β-Globin quantification. […]
# HepaRG cells = assay: Cytotoxicity, CellTiter-Glo Luminescent Cell Viability Assay; assay type: cell-based, Human; settings: highest concentration tested 40 microM
# Text: as §2
# Cytotoxicity was measured in HepaRG cells treated with drugs as in experimental schemes presented if FIG. 1 with the “CellTiter-Glo® Luminescent Cell Viability Assay” from Promega, by following manufacturer's instructions.
# Chain of SRSF10 (O75494 whole entry): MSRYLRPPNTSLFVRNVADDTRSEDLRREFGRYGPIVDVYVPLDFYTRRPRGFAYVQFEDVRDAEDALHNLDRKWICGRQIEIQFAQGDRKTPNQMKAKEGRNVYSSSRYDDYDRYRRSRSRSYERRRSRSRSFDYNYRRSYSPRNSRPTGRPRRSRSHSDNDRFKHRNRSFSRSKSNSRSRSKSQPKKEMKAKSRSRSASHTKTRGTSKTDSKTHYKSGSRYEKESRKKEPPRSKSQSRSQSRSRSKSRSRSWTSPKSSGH
smiles,measurement,setting,value
"Cn1ccc(=O)c(C(=O)Nc2nsc3ccc([N+](=O)[O-])cc23)c1 [1C8, 4-pyridinonebenzisothiazole carboxamide]",SRSF10 phosphorylation at serine 133,SRSF10,inhibit SRSF10 phosphorylation at serine 133
same,inhibition of replication of hepatitis delta virus,HDV genotype 1,not capable to inhibit
same,reduction of secretion of viral antigens (HBs and HBeAg) in cell culture supernatant,"HBV genotype D; 10 microM three times, ELISA",60-70%
same,reduction of HBV virions (secreted HBV DNA) in cell culture supernatant,"HBV genotype D; 10 microM three times, qPCR",60-70%
same,reduction of the accumulation of intracellular HBV RNA,"HBV genotype D; MOI 100 vge/cell, treated three times every 2-3 days with 10 microM",60-70%
same,inhibition at 10 µM,"HBV genotype C; Hepatitis B virus, dHepaRG treated before and during HBV inoculation",70%
same,"other viral markers (intracellular RNAs, HBeAg, HBsAg), genotype C","HBV genotype C; dHepaRG treated before and during inoculation, 10 microM",also reduced
same,"concentration toxic for cells (viability, CellTiter-Glo)",HepaRG cells,> 40 µM
